In ChEMBL document CHEMBL3046587, “Baseline sensitivity of Monilinia laxa from Greece to fenhexamid and analysis of fenhexamid-resistant mutants” (Crop Prot, 2013):
Values after ≈ are worked out from the molar mass of the structure shown.

Key:
Assay type in all cases: functional, organism-based
Monilinia laxa [1] = experiment: Fungitoxicity against moderately fenhexamid resistant Monilinia laxa MF-6 assessed as reduction in mycelial growth measured at 25 degC after 4 days; conditions: MF-6, 96 h
Monilinia laxa [2] = experiment: Fungitoxicity against moderately fenhexamid resistant Monilinia laxa MF-1 assessed as reduction in mycelial growth measured at 25 degC after 4 days; conditions: MF-1, 96 h
Monilinia laxa [3] = experiment: Fungitoxicity against highly fenhexamid resistant Monilinia laxa MF-5 assessed as reduction in mycelial growth measured at 25 degC after 4 days; conditions: MF-5, 96 h
Monilinia laxa [4] = experiment: Fungitoxicity against wild type Monilinia laxa K2 assessed as reduction in mycelial growth measured at 25 degC after 4 days; conditions: K2, 96 h
Monilinia laxa [5] = experiment: Fungitoxicity against highly fenhexamid resistant Monilinia laxa MF-3 assessed as reduction in mycelial growth measured at 25 degC after 4 days; conditions: MF-3, 96 h
Monilinia laxa [6] = experiment: Fungitoxicity against highly fenhexamid resistant Monilinia laxa MF-2 assessed as reduction in mycelial growth measured at 25 degC after 4 days; conditions: MF-2, 96 h
Monilinia laxa [7] = experiment: Fungitoxicity against moderately fenhexamid resistant Monilinia laxa MF-8 assessed as reduction in mycelial growth measured at 25 degC after 4 days; conditions: MF-8, 96 h
Monilinia laxa [8] = experiment: Fungitoxicity against moderately fenhexamid resistant Monilinia laxa MF-22 assessed as reduction in mycelial growth measured at 25 degC after 4 days; conditions: MF-22, 96 h
Monilinia laxa [9] = experiment: Fungitoxicity against moderately fenhexamid resistant Monilinia laxa MF-7 assessed as reduction in mycelial growth measured at 25 degC after 4 days; conditions: MF-7, 96 h
Monilinia laxa [10] = experiment: Fungitoxicity against moderately fenhexamid resistant Monilinia laxa MF-4 assessed as reduction in mycelial growth measured at 25 degC after 4 days; conditions: MF-4, 96 h

SMILES | EC50 (Monilinia laxa [1]) | EC50 (Monilinia laxa [2]) | EC50 (Monilinia laxa [3]) | EC50 (Monilinia laxa [4]) | EC50 (Monilinia laxa [5]) | EC50 (Monilinia laxa [6]) | EC50 (Monilinia laxa [7]) | EC50 (Monilinia laxa [8]) | EC50 (Monilinia laxa [9]) | EC50 (Monilinia laxa [10])
CC(C)NC(=O)N1CC(=O)N(c2cc(Cl)cc(Cl)c2)C1=O [IPRODIONE] | 0.32 µg/mL (≈ 0.969 µM) | 0.26 µg/mL (≈ 0.787 µM) | 0.25 µg/mL (≈ 0.757 µM) | 0.25 µg/mL (≈ 0.757 µM) | 0.25 µg/mL (≈ 0.757 µM) | 0.24 µg/mL (≈ 0.727 µM) | 0.35 µg/mL (≈ 1.06 µM) | 0.21 µg/mL (≈ 0.636 µM) | 0.23 µg/mL (≈ 0.697 µM) | 0.19 µg/mL (≈ 0.575 µM)
CCCN(CCOc1c(Cl)cc(Cl)cc1Cl)C(=O)n1ccnc1 [PROCHLORAZ] | 0.03 µg/mL (≈ 0.0796 µM) | 0.01 µg/mL (≈ 0.0265 µM) | 0.01 µg/mL (≈ 0.0265 µM) | 0.01 µg/mL (≈ 0.0265 µM) | 0.02 µg/mL (≈ 0.0531 µM) | 0.07 µg/mL (≈ 0.186 µM) | 0.02 µg/mL (≈ 0.0531 µM) | 0.02 µg/mL (≈ 0.0531 µM) | 0.08 µg/mL (≈ 0.212 µM) | 0.04 µg/mL (≈ 0.106 µM)
COC(=O)N(OC)c1ccccc1COc1ccn(-c2ccc(Cl)cc2)n1 [PYRACLOSTROBIN] | 0.1 µg/mL (≈ 0.258 µM) | 0.2 µg/mL (≈ 0.516 µM) | 0.4 µg/mL (≈ 1.03 µM) | 0.3 µg/mL (≈ 0.774 µM) | 0.4 µg/mL (≈ 1.03 µM) | 0.5 µg/mL (≈ 1.29 µM) | 0.4 µg/mL (≈ 1.03 µM) | 0.2 µg/mL (≈ 0.516 µM) | 0.4 µg/mL (≈ 1.03 µM) | 0.3 µg/mL (≈ 0.774 µM)
CCCN(CC)CC1COC2(CCC(C(C)(C)C)CC2)O1 (stereo not given) [SPIROXAMINE] | 12 µg/mL (≈ 40.3 µM) | 3.8 µg/mL (≈ 12.8 µM) | 3.5 µg/mL (≈ 11.8 µM) | 3.5 µg/mL (≈ 11.8 µM) | 3.6 µg/mL (≈ 12.1 µM) | 3.7 µg/mL (≈ 12.4 µM) | 3.2 µg/mL (≈ 10.8 µM) | 3.3 µg/mL (≈ 11.1 µM) | 3.5 µg/mL (≈ 11.8 µM) | 2.9 µg/mL (≈ 9.75 µM)
CCCCCCCCCCCCCN1CC(C)OC(C)C1 (stereo not given) [TRIDEMORPH] | 0.6 µg/mL (≈ 2.02 µM) | 0.4 µg/mL (≈ 1.34 µM) | 0.08 µg/mL (≈ 0.269 µM) | 0.1 µg/mL (≈ 0.336 µM) | 0.11 µg/mL (≈ 0.37 µM) | 0.07 µg/mL (≈ 0.235 µM) | 0.4 µg/mL (≈ 1.34 µM) | 0.1 µg/mL (≈ 0.336 µM) | 0.09 µg/mL (≈ 0.302 µM) | 0.12 µg/mL (≈ 0.403 µM)
